The assay deals with T1, TdaEBp (Burkholderia plantarii, UniProt A0A0B6RWE3).
T1 construct: gene BGL_1c08010; heterologously produced and purified, N-terminal GB1 (subunit B of protein G) and C-terminal polyhistidine tag
In words: UV-vis of purified protein (c280/c450). The assay is classed as binding. As to conditions: loosely bound, co-purified; partial occupancy.

T1 sequence (A0A0B6RWE3 entry or part of it): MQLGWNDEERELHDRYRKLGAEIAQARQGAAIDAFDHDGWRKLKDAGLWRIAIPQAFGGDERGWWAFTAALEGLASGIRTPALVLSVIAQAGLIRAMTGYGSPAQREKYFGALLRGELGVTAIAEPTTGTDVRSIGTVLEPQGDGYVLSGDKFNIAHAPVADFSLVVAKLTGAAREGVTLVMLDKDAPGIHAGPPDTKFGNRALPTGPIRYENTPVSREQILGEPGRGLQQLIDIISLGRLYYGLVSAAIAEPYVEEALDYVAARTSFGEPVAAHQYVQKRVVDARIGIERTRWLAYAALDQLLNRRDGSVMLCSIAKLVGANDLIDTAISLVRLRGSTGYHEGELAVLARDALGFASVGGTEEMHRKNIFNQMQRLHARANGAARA

In the case of `Cc1cc2nc3c(=O)[nH]c(=O)nc-3n(C[C@H](O)[C@H](O)[C@H](O)COP(=O)(O)OP(=O)(O)OC[C@H]3O[C@@H](n4cnc5c(N)ncnc54)[C@H](O)[C@@H]3O)c2cc1C` [FAD], the “UV-vis of purified protein (c280/c450)” value is recorded as “TdaE^Bp was weakly yellow due to a loosely bound FAD cofactor”.
